According to US20240165042A1, “COMPOSITION FOR CONTROLLED RELEASE OF PHYSIOLOGICALLY ACTIVE SUBSTANCES AND PROCESS FOR ITS PREPARATION” (BALCHEM ITALIA S.R.L., priority 2017, published 2024):

Key:
Type in all cases: in vitro ADME
[1] = Degree of ruminal by-pass in vitro (pharmaceutical dissolver / Daisy II ANKOM artificial rumen, 39° C., 8 hours, ruminal pH about 6.8)
Method: In the context of the present invention, the term “ruminal by-pass” indicates the percentage amount by weight of substance reaching the animal post-ruminal area, namely the stomach and the intestine, with respect to the total amount by weight of the orally administered substance.
The experimental conditions of use were 39° C., 15 rpm, 8 hours presence in the solution with “ruminal” pH of about 6.8. • Daisy^II ANKOM: commercially available laboratory artificial rumen, for determining the degree of ruminal bypass. The experimental conditions of use were 39° C., 8 hours presence in ruminal conditions, buffer solution at “ruminal” pH with insertion of “ruminal inoculum” and re-creation of ruminal anaerobiosis according to a university procedure known to those skilled in the art. […] Pharmaceutical dissolver for determining the degree of post-ruminal digestibility. The experimental conditions of use followed the procedure known to experts in the field as “Boisen Test” and, in particular, they were: • 39° C., 30 rpm, 2 h, buffer solution with “gastric” pH (2.0)+pepsin inoculum. • 39 °C, 30 rpm, 4 h, buffer solution with “intestinal” pH (6.8)+pancreatine inoculum. • 39° C., 30 rpm, 18 h, buffer solution with “intestinal” pH (6.8)+lipase and bile extract inoculum.
(§1) Then the microgranules were subjected to an evaluation of the degree of ruminal by-pass, post-ruminal digestibility and total bioavailability using the Boisen method.

[2] = Post-ruminal digestibility in vitro (pharmaceutical dissolver, Boisen Test: gastric pH 2.0 + pepsin, intestinal pH 6.8 + pancreatine, then lipase and bile extract)
Method: (§2) The experimental conditions of use were 39° C., 15 rpm, 8 hours presence in the solution with “ruminal” pH of about 6.8. • Daisy^II ANKOM: commercially available laboratory artificial rumen, for determining the degree of ruminal bypass. The experimental conditions of use were 39° C., 8 hours presence in ruminal conditions, buffer solution at “ruminal” pH with insertion of “ruminal inoculum” and re-creation of ruminal anaerobiosis according to a university procedure known to those skilled in the art. The pH normally tested in the quality control phase is 6.8. Pharmaceutical dissolver for determining the degree of post-ruminal digestibility. The experimental conditions of use followed the procedure known to experts in the field as “Boisen Test” and, in particular, they were: • 39° C., 30 rpm, 2 h, buffer solution with “gastric” pH (2.0)+pepsin inoculum. • 39 °C, 30 rpm, 4 h, buffer solution with “intestinal” pH (6.8)+pancreatine inoculum. • 39° C., 30 rpm, 18 h, buffer solution with “intestinal” pH (6.8)+lipase and bile extract inoculum.
as §1

[3] = Total bioavailability in vitro (combination of ruminal by-pass and post-ruminal digestibility)
Method: as §2, §1

[4] = theoretical administration of 100 g of choline chloride
[5] = theoretical administration of 200 g of product

In the case of `C[N+](C)(C)CCO.[Cl-]` [Product A, choline chloride], the “Bypassed Choline Chloride” value [1, 4] is reported as 0 g, the “Choline Chloride lost in the rumen in 8 h” value [1, 4] is reported as 101 g and the “Bypassed Choline Chloride” value [1, 5] is reported as 0 g. For the same molecule, the “Choline Chloride lost in the rumen in 8 h” value [1, 5] was 198 g, the “Choline Chloride in faeces” value [2, 4] was 0 g and the “Choline Chloride in faeces” value [2, 5] was 0 g. The “Bioavailable Choline Chloride” value [3, 4] was 0 g and the “Bioavailable Choline Chloride” value [3, 5] was 0 g.
